This note sets out measurements from patent US9073892B2, “Indazolyl triazol derivatives” (Merck Serono S.A., priority 2010, dated 2015).

The structures appear in SMILES notation. pIC50: −log10 of the molar value. Counter-ions that a name gives are not always drawn.

In the experiment the test system is T1, IRAK1/4 human.
T1 construct: fused on or other part: His tag and TEV cleavage site at the N-terminus
The experiment is described as follows: IRAK1/4 phosphorylation IC50 (enzymatic assay, table 2). In kind it is biochemical. The note with it: human IRAK1/4 phosphorylation. Summed up:
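Human IRAK-1 or IRAK-4, each carrying a His-TEV tag, was incubated with ATP and compounds in DMSO ranging from 20 µM to 1 nM in 384-well plates, and IRAK-4 reactions also contained STK1-biotin peptide. Reactions ran in 50 mM Hepes pH7.0 with MgCl2, DTT, EGTA and BSA for 2 or 3 hours, with 2% DMSO controls. Inhibition is given as IC50.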
Take `c1ccc2c(-c3cn(-c4ccc([C@@H]5C[C@H]6CC[C@@H](C5)N6C5CCCCC5)cc4)nn3)n[nH]c2c1` (single isomer, unassigned) [Example 151, 3-(1-{4-[(3-exo)-8-cyclohexyl-8-azabicyclo[3.2.1]oct-3-yl]phenyl}-1H-1,2,3-triazol-4-yl)-1H-indazole]: the pIC50 – broadly, −log10 of the IC50, conventionally taken in molar units – is more than 7.00.

The compound `c1ccc2c(-c3cn(-c4ccc([C@H]5C[C@H]6CC[C@@H](C5)N6C5CCCCC5)cc4)nn3)n[nH]c2c1` (single isomer, unassigned) [Example 152, 3-(1-{4-[(3-endo)-8-cyclohexyl-8-azabicyclo[3.2.1]oct-3-yl]phenyl}-1H-1,2,3-triazol-4-yl)-1H-indazole] had a pIC50 of 6.00 to 7.00.

`NCc1ccc(-n2cc(-c3n[nH]c4ccccc34)nn2)cc1` [Example 12, 1-{4-[4-(1H-indazol-3-yl)-1H-1,2,3-triazol-1-yl]phenyl}methanamine] had a pIC50 of 5.30 to 6.00.

For `O=C(NCc1ccc(-n2cc(-c3n[nH]c4ccccc34)nn2)cc1)C1CCCC1` [Example 13, N-{4-[4-(1H-indazol-3-yl)-1H-1,2,3-triazol-1-yl]benzyl}cyclopentanecarboxamide], the pIC50 was 5.30 to 6.00.

The compound `O=C(CN1CCOCC1)NCc1ccc(-n2cc(-c3n[nH]c4ccccc34)nn2)cc1` [Example 16, N-{4-[4-(1H-indazol-3-yl)-1H-1,2,3-triazol-1-yl]benzyl}-2-morpholin-4-ylacetamide] had a pIC50 of 5.30 to 6.00.

As for `O=C(NCc1ccc(-n2cc(-c3n[nH]c4ccccc34)nn2)cc1)C1CCOCC1` [Example 17, N-{4-[4-(1H-indazol-3-yl)-1H-1,2,3-triazol-1-yl]benzyl}tetrahydro-2H-pyran-4-carboxamide], the pIC50 was 5.30 to 6.00.

The compound `O=C(Cc1ccc(-n2cc(-c3n[nH]c4ccccc34)nn2)cc1)N1CCOCC1` [Example 18, 3-{1-[4-(2-morpholin-4-yl-2-oxoethyl)phenyl]-1H-1,2,3-triazol-4-yl}-1H-indazole] gave a pIC50 of 6.00 to 7.00.

`c1ccc2c(-c3cn(-c4ccc(N5CCOCC5)nc4)nn3)n[nH]c2c1` [Example 20, 3-[1-(6-morpholin-4-ylpyridin-3-yl)-1H-1,2,3-triazol-4-yl]-1H-indazole] gave a negative logarithm of the IC50 (pIC50) of 5.30 to 6.00.

For the compound `CN1CCN(C(=O)CCc2ccc(-n3cc(-c4n[nH]c5ccccc45)nn3)cc2)CC1` [Example 24, 3-(1-{4-[3-(4-methylpiperazin-1-yl)-3-oxopropyl]phenyl}-1H-1,2,3-triazol-4-yl)-1H-indazole], the pIC50 was 5.30 to 6.00.

As for `CS(=O)(=O)N1CCN(C(=O)c2ccc(-n3cc(-c4n[nH]c5ccccc45)nn3)cc2)CC1` [Example 41, 3-[1-(4-{[4-(methylsulfonyl)piperazin-1-yl]carbonyl}phenyl)-1H-1,2,3-triazol-4-yl]-1H-indazole], the pIC50 is 6.00 to 7.00.

`O=C(NCC1CCCO1)c1ccc(-n2cc(-c3n[nH]c4ccccc34)nn2)cc1` (centres unmarked) [Example 45, 4-[4-(1H-indazol-3-yl)-1H-1,2,3-triazol-1-yl]-N-(tetrahydrofuran-2-ylmethyl)benzamide] gave a pIC50 of 6.00 to 7.00.

For the compound `CCN(CC)CCNC(=O)c1ccc(-n2cc(-c3n[nH]c4ccccc34)nn2)cc1` [Example 46, N-[2-(diethylamino)ethyl]-4-[4-(1H-indazol-3-yl)-1H-1,2,3-triazol-1-yl]benzamide], the pIC50 is 6.00 to 7.00.

Regarding `CCN1CCCC1CNC(=O)c1ccc(-n2cc(-c3n[nH]c4ccccc34)nn2)cc1` (centres unmarked) [Example 47, N-[(1-ethylpyrrolidin-2-yl)methyl]-4-[4-(1H-indazol-3-yl)-1H-1,2,3-triazol-1-yl]benzamide], the pIC50 is 6.00 to 7.00.

`CC1CCCCN1CCCNC(=O)c1ccc(-n2cc(-c3n[nH]c4ccccc34)nn2)cc1` (centres unmarked) [Example 56] had a pIC50 of 6.00 to 7.00.

Compound `N#CCCN1CCN(C(=O)c2ccc(-n3cc(-c4n[nH]c5ccccc45)nn3)cc2)CC1` [Example 57, 3-(4-(4-[4-(1H-indazol-3-yl)-1H-1,2,3-triazol-1-yl]benzoyl}piperazin-1-yl)propanenitrile] had a pIC50 of 6.00 to 7.00.

Turning to `O=C(NCCCN1CCOCC1)c1cccc(-n2cc(-c3n[nH]c4ccccc34)nn2)c1` [Example 58, 3-[4-(1H-indazol-3-yl)-1H-1,2,3-triazol-1-yl]-N-(3-morpholin-4-ylpropyl)benzamide], the negative-log IC50 (pIC50) is 6.00 to 7.00.

`CCC1CCCCN1CCCNC(=O)c1ccc(-n2cc(-c3n[nH]c4ccccc34)nn2)cc1` (centres unmarked) [Example 59, N-[3-(2-ethylpiperidin-1-yl)propyl]-4-[4-(1H-indazol-3-yl)-1H-1,2,3-triazol-1-yl]benzamide] had a pIC50 of 6.00 to 7.00.

Regarding `O=C(NCCCN1CCCC1=O)c1ccc(-n2cc(-c3n[nH]c4ccccc34)nn2)cc1` [Example 61, 4-[4-(1H-indazol-3-yl)-1H-1,2,3-triazol-1-yl]-N-[3-(2-oxopyrrolidin-1-yl)propyl]benzamide], the pIC50 was 5.30 to 6.00.

Take `O=C(NCc1cccc(F)c1)c1ccc(-n2cc(-c3n[nH]c4ccccc34)nn2)cc1` [Example 62, N-(3-fluorobenzyl)-4-[4-(1H-indazol-3-yl)-1H-1,2,3-triazol-1-yl]benzamide]: the negative logarithm of the IC50 (pIC50) was 5.30 to 6.00.

`O=C(NCCCN1CCCCC1)c1cccc(-n2cc(-c3n[nH]c4ccccc34)nn2)c1` [Example 63, 3-[4-(1H-indazol-3-yl)-1H-1,2,3-triazol-1-yl]-N-(3-piperidin-1-ylpropyl)benzamide] had a pIC50 of 5.30 to 6.00.

The compound `CN(CCNC(=O)c1cccc(-n2cc(-c3n[nH]c4ccccc34)nn2)c1)C1CCCCC1` [Example 64, N-{2-[cyclohexyl(methyl)amino]ethyl}-3-[4-(1H-indazol-3-yl)-1H-1,2,3-triazol-1-yl]benzamide] gave a pIC50 of 5.30 to 6.00.

Compound `COCCNC(=O)c1cccc(-n2cc(-c3n[nH]c4ccccc34)nn2)c1` [Example 65, 3-[4-(1H-indazol-3-yl)-1H-1,2,3-triazol-1-yl]-N-(2-methoxyethyl)benzamide] showed a negative logarithm of the IC50 (pIC50) of 5.30 to 6.00.

In turn, `CC(C)N1CCN(C(=O)c2cccc(-n3cc(-c4n[nH]c5ccccc45)nn3)c2)CC1` [Example 66, 3-(1-{3-[(4-isopropylpiperazin-1-yl)carbonyl]phenyl}-1H-1,2,3-triazol-4-yl)-1H-indazole] had a pIC50 of 5.30 to 6.00.

As for `O=C(c1cccc(-n2cc(-c3n[nH]c4ccccc34)nn2)c1)N1CCCCC1` [Example 67, 3-{1-[3-(piperidin-1-ylcarbonyl)phenyl]-1H-1,2,3-triazol-4-yl}-1H-indazole], the pIC50 is 5.30 to 6.00.

The compound `CC(C)NC(=O)c1cccc(-n2cc(-c3n[nH]c4ccccc34)nn2)c1` [Example 68, 3-[4-(1H-indazol-3-yl)-1H-1,2,3-triazol-1-yl]-N-isopropylbenzamide] gave a pIC50 of 5.30 to 6.00.

The compound `O=C(c1cccc(-n2cc(-c3n[nH]c4ccccc34)nn2)c1)N1CCCC(CN2CCCC2)C1` (centres unmarked) [Example 69, 3-[1-(3-{[3-(pyrrolidin-1-ylmethyl)piperidin-1-yl]carbonyl}phenyl)-1H-1,2,3-triazol-4-yl]-1H-indazole] showed a pIC50 of 5.30 to 6.00.

For the compound `CN1CCN(C(=O)Cc2ccc(-n3cc(-c4n[nH]c5ccccc45)nn3)cc2)CC1` [Example 70], the negative logarithm of the IC50 (pIC50) is 6.00 to 7.00.

Turning to `O=C(CCc1cccc(-n2cc(-c3n[nH]c4ccccc34)nn2)c1)N1CCCC1` [Example 87, 3-{1-[3-(3-oxo-3-pyrrolidin-1-ylpropyl)phenyl]-1H-1,2,3-triazol-4-yl}-1H-indazole], the pIC50 was 5.30 to 6.00.

As to `CN1CCCC1CCNC(=O)c1ccc(-n2cc(-c3n[nH]c4ccccc34)nn2)cc1` (centres unmarked) [Example 90, 4-[4-(1H-indazol-3-yl)-1H-1,2,3-triazol-1-yl]-N-[2-(1-methylpyrrolidin-2-yl)ethyl]benzamide], the negative-log IC50 (pIC50) is 6.00 to 7.00.

Compound `O=C(c1ccc(-n2cc(-c3n[nH]c4ccccc34)nn2)c(F)c1)N1CCOCC1` [Example 102, 3-{1-[2-fluoro-4-(morpholin-4-ylcarbonyl)phenyl]-1H-1,2,3-triazol-4-yl}-1H-indazole] gave a pIC50 of 5.30 to 6.00.

`O=C(c1ccc(-n2cc(-c3n[nH]c4ccccc34)nn2)cc1)N(CCO)C1CCCCC1` [Example 107, N-cyclohexyl-N-(2-hydroxyethyl)-4-[4-(1H-indazol-3-yl)-1H-1,2,3-triazol-1-yl]benzamide] gave a pIC50 of 6.00 to 7.00.

As to `CN1CCC(NC(=O)c2ccc(-n3cc(-c4n[nH]c5ccccc45)nn3)cc2)CC1` [Example 116, 4-[4-(1H-indazol-3-yl)-1H-1,2,3-triazol-1-yl]-N-(1-methylpiperidin-4-yl)benzamide], the pIC50 is 5.30 to 6.00.

`CCC(O)CNC(=O)c1ccc(-n2cc(-c3n[nH]c4ccccc34)nn2)cc1` (centres unmarked) [Example 119, N-(2-hydroxybutyl)-4-[4-(1H-indazol-3-yl)-1H-1,2,3-triazol-1-yl]benzamide] had a pIC50 of 6.00 to 7.00.

`O=C(c1ccc(-n2cc(-c3n[nH]c4ccc(Br)cc34)nn2)cc1)N1CCOCC1` [Example 122, 5-bromo-3-{1-[4-(morpholin-4-ylcarbonyl)phenyl]-1H-1,2,3-triazol-4-yl}-1H-indazole] showed a negative logarithm of the IC50 (pIC50) of 6.00 to 7.00.

`C1=C(c2ccc(-n3cc(-c4n[nH]c5ccccc45)nn3)cc2)CCNC1` [Example 131, hydrochloride] had a pIC50 of 6.00 to 7.00.

`FCCN1CCC(c2ccc(-n3cc(-c4n[nH]c5ccccc45)nn3)cc2)CC1` [Example 133, 3-(1-{4-[1-(2-fluoroethyl)piperidin-4-yl]phenyl}-1H-1,2,3-triazol-4-yl)-1H-indazole] had a pIC50 of 6.00 to 7.00.

Compound `CC(=O)N1CCC(c2ccc(-n3cc(-c4n[nH]c5ccccc45)nn3)cc2)CC1` [Example 134, 3-{1-[4-(1-acetylpiperidin-4-yl)phenyl]-1H-1,2,3-triazol-4-yl}-1H-indazole] gave a pIC50 of 6.00 to 7.00.

As for `Fc1ccc2c(-c3cn(-c4ccc(C5CCN(CCC(F)(F)F)CC5)cc4)nn3)n[nH]c2c1` [Example 135, 6-fluoro-3-(1-{4-[1-(3,3,3-trifluoropropyl)piperidin-4-yl]phenyl}-1H-1,2,3-triazol-4-yl)-1H-indazole], the pIC50 is 6.00 to 7.00.
